Numbering of substitutions follows the chain as printed. Several values for one entry are separate records, joined by “and”; a condition that tells them apart may be missing. Identical values can stand only once.
Columns and labels:
K2P2.1 (TREK-1) = target: T1, K2P2.1 (TREK-1) (Mus musculus, UniProt P97438); assay: Two-electrode voltage clamp (TEVC) in Xenopus oocytes; type: cell-based; conditions: for TREK-1 activity class: Fold-activation at 20 uM in oocytes
T1 construct: expressed in transfected cells; host or cells: Xenopus laevis oocytes injected with mRNA (pGEMHE/pMO vector)
T1 sequence (P97438 1-411 isoform P97438-2): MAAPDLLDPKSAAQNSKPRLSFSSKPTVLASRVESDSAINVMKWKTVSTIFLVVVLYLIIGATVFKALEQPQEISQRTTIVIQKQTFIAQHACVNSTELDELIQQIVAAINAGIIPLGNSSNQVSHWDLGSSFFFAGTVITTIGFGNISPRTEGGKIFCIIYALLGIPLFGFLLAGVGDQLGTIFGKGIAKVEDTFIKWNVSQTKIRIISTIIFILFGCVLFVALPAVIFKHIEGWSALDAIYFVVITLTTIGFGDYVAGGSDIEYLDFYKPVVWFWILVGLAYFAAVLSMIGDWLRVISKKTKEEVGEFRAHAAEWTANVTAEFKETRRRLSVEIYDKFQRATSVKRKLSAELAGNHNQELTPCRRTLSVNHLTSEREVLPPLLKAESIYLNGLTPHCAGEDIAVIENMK
Description: (§1) Mouse K2P2.1 (TREK-1) (Genbank accession number: NP_034737.2), mouse K2P10.1 (TREK-2) (NM_001316665.1), mouse K2P4.1 (TRAAK) (NM_008431.3), human K2P4.1 (TRAAK) (NM_033310.2) and mouse K2P18.1(TRESK) (NM_207261.3) were used for this study. Point mutations were introduced by site-directed mutagenesis using custom primers and confirmed by sequencing before use. For studies using Xenopus oocytes, K2P channels were subcloned into a previously reported pGEMHE/pMO vector (46). For expression in HEK293 cells, mouse K2P2.1 (TREK-1) and mutants were expressed from a previously described pIRES2-EGFP vector in HEK293 cells (46,47). K2P2.1 (TREK-1) tandems were constructed by connecting the open reading frames for the individual subunits with a linker encoding the […] (SEQ ID NO: 19) sequence. Tandems used for HEK293 cells included an N-terminal HA tag ([…] (SEQ ID NO: 20)) on the first subunit.
(§2) Xenopus laevis oocytes were harvested according to UCSF IACUC Protocol AN129690 and digested using collagenase (Worthington Biochemical Corporation, #LS004183, 0.8-1.0 mg/mL) in Ca^21-free ND96 (96 mM NaCl, 2 mM KCl, 3.8 mM MgCl2, 5 mM HEPES pH 7.4) immediately post-harvest, as previously reported (31,33). Oocytes were maintained at 18° C. in ND96 (96 mM NaCl, 2 mM KCl, 1.8 mM CaCl2, 2 mM MgCl2, 5 mM HEPES pH 7.4) supplemented with antibiotics (100 units mL^−1 penicillin, 100 μg mL^−1 streptomycin, 50 μg mL^−1 gentimycin) and used for experiments within one week of harvest.
(§3) Defolliculated stage V-VI oocytes were microinjected with 0.5-36 ng mRNA and currents were recorded within 16-48 h hours of injection.
(§4) For recordings, oocytes were impaled with borosilicate recording microelectrodes (0.4-2.0 MΩ resistance) backfilled with 3 M KCl and were subjected to constant perfusion of ND96 at a rate of 3 ml min^−1. Recording solutions containing K2P activators were prepared immediately prior to use from DMSO stocks (20-100 mM), with final DMSO concentrations of 0.1%. Currents were evoked from a −80 mV holding potential followed by a 300 ms ramp from −150 mV to +50 mV. Data were recorded using a GeneClamp 500B amplifier (MDS Analytical Technologies) controlled by pCLAMP8 software (Molecular Devices), and digitized at 1 kHz using Digidata 1332 Å digitizer (MDS Analytical Technologies). For each recording, control solution (ND96) was perfused over a single oocyte until current was stable before switching to solutions containing the test compounds at various concentrations. Representative traces and dose response plots were generated in GraphPad Prism 9.

K2P10.1 (TREK-2)^CG* = target: T2, K2P10.1 (TREK-2)^CG* (Mus musculus, UniProt Q8BUW1, S153C); assay: TEVC in Xenopus oocytes; type: cell-based; conditions: Fold-activation at 20 uM in oocytes
T2 construct: Modified TREK-2 from Mus musculus; expressed in transfected cells; host or cells: Xenopus laevis oocytes injected with mRNA
T2 sequence (Q8BUW1 with tags, fused parts or gaps S153C): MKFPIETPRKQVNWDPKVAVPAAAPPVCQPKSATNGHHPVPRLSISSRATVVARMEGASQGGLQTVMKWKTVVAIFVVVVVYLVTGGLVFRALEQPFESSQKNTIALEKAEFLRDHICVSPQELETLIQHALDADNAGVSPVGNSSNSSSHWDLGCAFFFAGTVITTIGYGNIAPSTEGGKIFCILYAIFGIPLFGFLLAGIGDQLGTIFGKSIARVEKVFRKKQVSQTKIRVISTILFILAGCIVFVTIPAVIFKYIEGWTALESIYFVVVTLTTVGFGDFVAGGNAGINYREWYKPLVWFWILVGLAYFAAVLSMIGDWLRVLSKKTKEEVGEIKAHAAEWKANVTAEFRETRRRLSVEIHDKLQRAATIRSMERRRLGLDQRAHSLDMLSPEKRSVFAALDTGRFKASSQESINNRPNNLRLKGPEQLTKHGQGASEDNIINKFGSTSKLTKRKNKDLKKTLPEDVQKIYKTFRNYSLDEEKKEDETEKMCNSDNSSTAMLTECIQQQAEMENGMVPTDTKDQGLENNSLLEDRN
Description: as §1, §2, §3, §4

TREK-2 = target: T3, TREK-2 (Mus musculus, UniProt Q8BUW1); assay: TEVC in Xenopus oocytes; type: cell-based; conditions: Fold-activation at 20 uM in oocytes
T3 construct: expressed in transfected cells; host or cells: Xenopus laevis oocytes injected with mRNA
T3 sequence (Q8BUW1 with tags, fused parts or gaps): T2 sequence (Q8BUW1 with tags, fused parts or gaps S153C) with C156S
Description: as §1, §2, §3, §4

[1] = target: T4, TREK-1^CG* (K2P2.1 (TREK-1) S131C) (Mus musculus, UniProt P97438, S146C); assay: TEVC in Xenopus oocytes; type: cell-based; conditions: Fold-activation at 20 uM in oocytes
T4 construct: expressed in transfected cells; host or cells: Xenopus laevis oocytes injected with mRNA
T4 sequence (P97438 1-411 isoform P97438-2 S131C): T1 sequence (P97438 1-411 isoform P97438-2) with S131C
Description: as §1, §2, §3, §4

K2P2.1 (TREK-1) S131A = target: T5, K2P2.1 (TREK-1) S131A (Mus musculus, UniProt P97438, S146A); assay: TEVC in Xenopus oocytes; type: cell-based; conditions: 20 μM, 0 mV
T5 construct: expressed in transfected cells; host or cells: Xenopus laevis oocytes injected with mRNA
T5 sequence (P97438 1-411 isoform P97438-2 S131A): T1 sequence (P97438 1-411 isoform P97438-2) with S131A
Description: as §1, §2, §3, §4

K2P4.1 (TRAAK) = target: T6, K2P4.1 (TRAAK) (Homo sapiens, UniProt Q9NYG8); conditions: previous studies; cited from earlier work
T6 sequence (Q9NYG8 1-393): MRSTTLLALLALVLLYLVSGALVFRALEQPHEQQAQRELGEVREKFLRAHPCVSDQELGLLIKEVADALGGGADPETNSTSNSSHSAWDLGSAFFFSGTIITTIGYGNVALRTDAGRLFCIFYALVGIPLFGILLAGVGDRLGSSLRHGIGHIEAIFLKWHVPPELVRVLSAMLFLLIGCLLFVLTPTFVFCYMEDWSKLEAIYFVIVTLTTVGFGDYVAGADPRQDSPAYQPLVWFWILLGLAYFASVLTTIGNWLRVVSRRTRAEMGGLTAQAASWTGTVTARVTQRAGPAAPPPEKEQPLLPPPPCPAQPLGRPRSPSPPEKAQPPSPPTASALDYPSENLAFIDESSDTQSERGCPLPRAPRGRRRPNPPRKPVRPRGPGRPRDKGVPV

[2] = Solubility in aqueous solutions (crystallization sample preparation); type: physicochemical
Experimental: K2P2.1cryst ML335 and ML402 complex crystals grew in the same conditions as K2P2.1cyst, but the protein was incubated for at least 1 h with 2.5 mM of activator before setting the crystal plates. […] Then each compound was diluted 1:100 in SEC buffer to 5 mM concentration, giving a milky solution. This solution was mixed 1:1 to K2P2.1cryst previously concentrated to 12 mg ml^−1. […] The samples were briefly centrifuged in a table-top centrifuge (10,000 g) to remove any insoluble material before setting the crystal plates.

| TREK-1 activity class (K2P2.1 (TREK-1)) | TREK-2 GC activity class (K2P10.1 (TREK-2)^CG*) | TREK-2 activity class (TREK-2) | TREK-1 GC activity class [1] | SMILES | other results |
| --- | --- | --- | --- | --- | --- |
| + (1.5-2.5 fold) | +++ (>5 fold) | + (1.5-2.5 fold) | +++ (>5 fold) | O=C(NCc1ccc(Cl)cc1Cl)c1ccc(N2C(=O)C=CC2=O)cc1 [Entry 16] |  |
| + (1.5-2.5 fold) | +++ (>5 fold) | + (1.5-2.5 fold) | +++ (>5 fold) | CC1=CC(=O)N(c2ccc(C(=O)NCc3ccc(Cl)cc3Cl)cc2)C1=O [Entry 15] |  |
|  | + (1.5-2.5 fold) |  | ++ (2.5-5 fold) | CC1=C(C)C(=O)N(c2ccc(C(=O)NCc3ccc(Cl)cc3Cl)cc2)C1=O [Entry 20] |  |
|  |  |  |  | C=CC(=O)Nc1ccc(C(=O)NCc2ccc(Cl)cc2Cl)cc1 [ML336] | Reversibility of activation on washout (K2P2.1 (TREK-1); 20 μM, Xenopus oocytes): sustained following washout; Fold-activation (I activator/I control) (K2P2.1 (TREK-1); 20 μM, currents at 0 mV, Xenopus oocytes): 10+1.0 fold and 10.0 (FIG. 1) fold; Fold-activation (I activator/I control) (K2P2.1 (TREK-1) S131A): 16.1 (FIG. 1) fold |
|  |  |  |  | Cc1cc(Cl)ccc1OCCNC(=O)c1cccs1 [ML402] | Sensitivity of channel to activator (K2P4.1 (TRAAK)): insensitive; Solubility in aqueous solutions [2]: insoluble in aqueous solutions |

— US20260098008A1, “COVALENT, CHEMOGENETIC ACTIVATORS FOR K2P POTASSIUM CHANNELS AND USES THEREOF” (THE REGENTS OF THE UNIVERSITY OF CALIFORNIA, priority 2022, published 2026)
